Activity calls are given as the source filed them.
Key:
[1] = molecular target: T1, Calpain-2 catalytic subunit (Sus scrofa, UniProt P43367); assay: m-calpain protease blockers, concentration series – biochemical, fluorogenic peptide substrate, dose response (AID 1420); assay type: functional
T1 sequence (P43367 whole entry): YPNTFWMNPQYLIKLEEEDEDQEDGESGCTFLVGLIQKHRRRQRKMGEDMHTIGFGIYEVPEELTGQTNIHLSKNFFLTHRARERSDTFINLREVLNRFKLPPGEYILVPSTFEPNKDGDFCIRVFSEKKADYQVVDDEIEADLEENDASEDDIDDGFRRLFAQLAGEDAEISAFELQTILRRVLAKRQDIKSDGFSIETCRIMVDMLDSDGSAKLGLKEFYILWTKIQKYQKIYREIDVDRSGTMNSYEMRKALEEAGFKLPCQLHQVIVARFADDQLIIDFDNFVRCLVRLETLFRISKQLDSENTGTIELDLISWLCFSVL

HeLa = assay: viability loss in HeLa cells – cell-based, ATP luminescence, cherry-pick samples, cytotoxicity control, dose response (AID 687004); assay type: functional; settings: Homo sapiens
Galanin receptor type 3 = Galanin receptor type 3 (Homo sapiens, UniProt O60755); assay: Fluorescence-based cell-based primary high throughput dose response assay to identify antagonists of the Galanin Receptor 3 (GalR3).; assay type: functional
cells = assay type: functional, cell-based; settings: HEK-CNG
[2] = molecular target: Endoplasmic reticulum aminopeptidase 1 (Homo sapiens, UniProt Q9NZ08); assay: inhibition of human ERAP1 enzyme activity – biochemical, cherry-pick, set 2, plate reader, dose response (AID 743314)
[3] = molecular target: Induced myeloid leukemia cell differentiation protein Mcl-1 (Homo sapiens, UniProt Q07820); assay type: functional
[4] = molecular target: Disintegrin and metalloproteinase domain-containing protein 17 (Homo sapiens, UniProt P78536); assay: exosite inhibitors of ADAM17, dose response, biochemical (AID 743260)
[5] = inhibition of ADAM10 peptide cleavage – biochemical, FRET peptide substrate, recombinant human ADAM10, selectivity assay for ADAM17 exosite inhibitor project, dose response (AID 743259);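 note: ADAM10 enzyme cleaving a FRET peptide substrate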
[6] = Luminescence Cell-Based Dose Retest to Confirm Inhibitors of Cancer Stem Cells. [Related pubchem assays (depositor defined):AID2717, AID2721]; assay type: functional; settings: Homo sapiens
Bcl-2-related protein A1 = molecular target: T2, Bcl-2-related protein A1 (Mus musculus, UniProt Q07440); assay type: functional;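 note: confirmatory dose–response counterscreen on Bfl-1, used to check hits from a UBC13 polyubiquitin inhibitor campaign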
T2 sequence (Q07440 whole entry): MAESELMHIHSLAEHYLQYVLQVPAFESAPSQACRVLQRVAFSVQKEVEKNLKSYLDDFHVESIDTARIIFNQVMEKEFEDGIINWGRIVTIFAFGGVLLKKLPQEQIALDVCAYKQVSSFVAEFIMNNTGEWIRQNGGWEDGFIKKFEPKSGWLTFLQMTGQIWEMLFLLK

[7] = molecular target: T3, Ubiquitin-conjugating enzyme E2 N (Homo sapiens, UniProt P61088); assay type: functional
T3 sequence (P61088 whole entry): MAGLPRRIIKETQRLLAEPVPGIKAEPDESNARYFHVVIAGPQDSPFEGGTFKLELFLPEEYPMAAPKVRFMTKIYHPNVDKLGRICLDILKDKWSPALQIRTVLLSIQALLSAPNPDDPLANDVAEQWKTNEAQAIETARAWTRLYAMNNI

[8] = molecular target: T3, Ubiquitin-conjugating enzyme E2 N; assay type: functional; remark: listed apart in the source
CHO = CHO cell viability loss, potency – luminescence, cytotoxicity control for TLR9-MyD88 binding inhibitor project, dose response (AID 588339); assay type: functional, cell-based, hamster; settings: Cricetulus griseus;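 note: CHO cells stably coexpressing TLR9 and MyD88 fusions from primary screen; compound exposure lasted 48 hours before viability readout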
[9] = molecular target: T4, Replicative DNA helicase DnaB (Mycobacterium tuberculosis, UniProt P9WMR3); assay: DnaB intein splicing inhibitors, dose response, biochemical, cell-free fluorescence (AID 449749); assay type: functional
T4 sequence (P9WMR3 whole entry): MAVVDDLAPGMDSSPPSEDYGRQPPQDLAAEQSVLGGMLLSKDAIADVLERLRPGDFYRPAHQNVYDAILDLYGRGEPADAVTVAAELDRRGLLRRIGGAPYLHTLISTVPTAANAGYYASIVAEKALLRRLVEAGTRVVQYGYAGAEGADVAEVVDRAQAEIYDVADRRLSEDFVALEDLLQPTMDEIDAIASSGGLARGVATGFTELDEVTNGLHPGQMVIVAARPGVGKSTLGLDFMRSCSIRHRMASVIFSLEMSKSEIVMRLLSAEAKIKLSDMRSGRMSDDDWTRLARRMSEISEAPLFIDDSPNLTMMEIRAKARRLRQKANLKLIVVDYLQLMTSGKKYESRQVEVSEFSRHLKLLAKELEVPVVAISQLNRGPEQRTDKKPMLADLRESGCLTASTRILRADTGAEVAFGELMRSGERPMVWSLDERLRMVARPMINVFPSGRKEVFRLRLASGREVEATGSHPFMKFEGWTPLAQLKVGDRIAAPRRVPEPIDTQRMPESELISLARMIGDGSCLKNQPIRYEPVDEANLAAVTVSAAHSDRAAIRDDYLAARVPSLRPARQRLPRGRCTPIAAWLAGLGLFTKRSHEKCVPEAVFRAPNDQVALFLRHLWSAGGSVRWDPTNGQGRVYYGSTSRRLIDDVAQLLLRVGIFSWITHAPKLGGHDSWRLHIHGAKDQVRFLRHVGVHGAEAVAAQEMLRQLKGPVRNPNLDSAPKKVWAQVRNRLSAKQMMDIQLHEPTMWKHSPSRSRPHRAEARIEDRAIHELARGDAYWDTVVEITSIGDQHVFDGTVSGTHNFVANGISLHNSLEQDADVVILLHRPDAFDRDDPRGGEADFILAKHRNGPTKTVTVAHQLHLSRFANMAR

Protein RecA = molecular target: T5, Protein RecA (Mycobacterium tuberculosis, UniProt P9WHJ3); assay: Fluorescence Cell-Free Homogeneous Dose Retest to Identify Inhibitors of RecA-Intein Splicing Activity. [Related pubchem assays (depositor defined):AID2097, AID2223, AID489010, AID492950]; assay type: functional
T5 sequence (P9WHJ3 whole entry): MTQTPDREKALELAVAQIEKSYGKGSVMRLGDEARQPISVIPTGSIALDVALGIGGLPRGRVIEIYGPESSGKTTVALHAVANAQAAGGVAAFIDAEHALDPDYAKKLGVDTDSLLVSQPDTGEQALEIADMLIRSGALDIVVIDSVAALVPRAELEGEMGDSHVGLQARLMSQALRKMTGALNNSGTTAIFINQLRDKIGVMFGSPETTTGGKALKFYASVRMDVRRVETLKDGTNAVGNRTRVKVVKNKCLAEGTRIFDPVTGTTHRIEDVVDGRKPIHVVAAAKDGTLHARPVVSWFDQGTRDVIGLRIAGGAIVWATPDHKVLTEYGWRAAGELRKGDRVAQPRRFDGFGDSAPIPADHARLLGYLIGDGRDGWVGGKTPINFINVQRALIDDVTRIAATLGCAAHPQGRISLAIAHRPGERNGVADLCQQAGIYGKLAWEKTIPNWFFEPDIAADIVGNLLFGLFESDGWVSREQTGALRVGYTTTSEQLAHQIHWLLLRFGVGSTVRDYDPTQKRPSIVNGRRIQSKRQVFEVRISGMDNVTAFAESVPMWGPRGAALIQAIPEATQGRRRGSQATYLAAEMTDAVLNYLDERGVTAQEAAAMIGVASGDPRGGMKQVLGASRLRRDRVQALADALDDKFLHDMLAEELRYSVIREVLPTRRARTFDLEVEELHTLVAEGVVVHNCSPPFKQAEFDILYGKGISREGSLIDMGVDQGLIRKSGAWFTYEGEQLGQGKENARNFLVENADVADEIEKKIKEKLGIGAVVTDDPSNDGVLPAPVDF

Beta Lactamase [10] = molecular target: T6, Beta Lactamase (Pseudomonas aeruginosa, UniProt Q932Y6); assay: BLA reporter interference, concentration series – BLA reporter cells, FRET fluorescence, artefact control for TLR9-MyD88 binding inhibitor project, dose response (AID 588341); assay type: cell-based;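 note: cell based assay in CHO-K1 cells stably expressing beta-lactamase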
[11] = reduction of Shn3 3'UTR-driven luciferase in osteoblasts – cell-based, Clone20 osteoblasts, firefly luciferase, cherry-picked, dose response (AID 624132); assay type: functional;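 note: firefly luciferase luminescence from reporter carrying the Shn3 3'UTR in osteoblasts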
[12] = loss of viability in HepG2 cells – cell-based, CellTiter-Glo, cherry-picked, cytotoxicity control for Shn3 inhibitor project, dose response (AID 624134); assay type: functional
[13] = non-specific 3'UTR reporter inhibition in Clone20-Shn3RL – cell-based, Renilla luciferase, cherry-picked, counter-screen for Shn3 inhibitor project, dose response (AID 624133); assay type: functional
[14] = molecular target: ATP-binding cassette sub-family B member 6 (Homo sapiens, UniProt Q9NP58); assay: ABCB6 transporter inhibitors, porphyrin accumulation, dose response, flow cytometry, K562-ABCB6 cells, cherry pick 02 (AID 624487); assay type: functional; settings: read-out: EC50_MICROM
Albumin = Albumin (Bos taurus, UniProt P02769); assay: Counterscreen for inhibitors of T-cell receptor (TCR)-CD3 interaction: Fluorescence-based biochemical high throughput dose response assay to identify inhibitors of T-cell receptor (TCR)-CD3 interaction using a TAMRA-labeled BSA probe.; assay type: functional
Beta-lactamase [15] = molecular target: Beta-lactamase (Salmonella choleraesuis (strain SC-B67), UniProt Q5J463); assay: Epi-absorbance-based counterscreen for selective VIM-2 inhibitors: dose response biochemical high throughput screening assay to identify inhibitors of TEM-1 serine-beta-lactamase.
Beta-lactamase [16] = molecular target: T7, Beta-lactamase (Pseudomonas aeruginosa, UniProt Q79MP6); assay: inhibition of IMP-1 beta-lactamase activity – biochemical, epi-absorbance, selectivity assay for VIM-2 inhibitor project, dose response (AID 1920)
Beta Lactamase [17] = molecular target: T6, Beta Lactamase; assay: concentration-dependent VIM-2 enzyme inhibition – biochemical, epi-absorbance readout, selective inhibitors, dose response (AID 1919)
Beta-lactamase [18] = molecular target: T7, Beta-lactamase; assay: […] counterscreen for selective VIM-2 inhibitors: dose response biochemical high throughput screening assay to identify inhibitors of IMP-1 metallo-beta-lactamase.
Beta Lactamase [19] = molecular target: T6, Beta Lactamase; assay: VIM-2 CCF2 hydrolysis inhibition, assay artifact filter – biochemical, FRET readout, CCF2 substrate, artefact control for selective VIM-2 inhibitor project, dose response (AID 1926)

T6 sequence (Q932Y6 whole entry): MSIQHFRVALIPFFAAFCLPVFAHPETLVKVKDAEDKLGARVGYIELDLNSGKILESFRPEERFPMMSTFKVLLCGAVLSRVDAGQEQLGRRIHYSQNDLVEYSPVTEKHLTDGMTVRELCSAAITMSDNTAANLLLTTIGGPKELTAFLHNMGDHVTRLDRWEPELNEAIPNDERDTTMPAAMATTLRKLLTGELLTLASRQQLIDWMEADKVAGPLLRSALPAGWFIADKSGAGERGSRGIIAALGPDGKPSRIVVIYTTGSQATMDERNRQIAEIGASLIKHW
T7 sequence (Q79MP6 whole entry): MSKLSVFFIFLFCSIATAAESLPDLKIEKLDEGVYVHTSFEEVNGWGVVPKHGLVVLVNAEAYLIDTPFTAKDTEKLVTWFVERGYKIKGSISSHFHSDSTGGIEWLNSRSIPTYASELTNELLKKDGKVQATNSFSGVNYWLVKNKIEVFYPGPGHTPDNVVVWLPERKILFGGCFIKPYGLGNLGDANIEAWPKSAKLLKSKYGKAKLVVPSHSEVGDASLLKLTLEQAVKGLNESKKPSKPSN
Disintegrin and metalloproteinase domain-containing protein 17, sequence (P78536 whole entry, the tested form may be a part): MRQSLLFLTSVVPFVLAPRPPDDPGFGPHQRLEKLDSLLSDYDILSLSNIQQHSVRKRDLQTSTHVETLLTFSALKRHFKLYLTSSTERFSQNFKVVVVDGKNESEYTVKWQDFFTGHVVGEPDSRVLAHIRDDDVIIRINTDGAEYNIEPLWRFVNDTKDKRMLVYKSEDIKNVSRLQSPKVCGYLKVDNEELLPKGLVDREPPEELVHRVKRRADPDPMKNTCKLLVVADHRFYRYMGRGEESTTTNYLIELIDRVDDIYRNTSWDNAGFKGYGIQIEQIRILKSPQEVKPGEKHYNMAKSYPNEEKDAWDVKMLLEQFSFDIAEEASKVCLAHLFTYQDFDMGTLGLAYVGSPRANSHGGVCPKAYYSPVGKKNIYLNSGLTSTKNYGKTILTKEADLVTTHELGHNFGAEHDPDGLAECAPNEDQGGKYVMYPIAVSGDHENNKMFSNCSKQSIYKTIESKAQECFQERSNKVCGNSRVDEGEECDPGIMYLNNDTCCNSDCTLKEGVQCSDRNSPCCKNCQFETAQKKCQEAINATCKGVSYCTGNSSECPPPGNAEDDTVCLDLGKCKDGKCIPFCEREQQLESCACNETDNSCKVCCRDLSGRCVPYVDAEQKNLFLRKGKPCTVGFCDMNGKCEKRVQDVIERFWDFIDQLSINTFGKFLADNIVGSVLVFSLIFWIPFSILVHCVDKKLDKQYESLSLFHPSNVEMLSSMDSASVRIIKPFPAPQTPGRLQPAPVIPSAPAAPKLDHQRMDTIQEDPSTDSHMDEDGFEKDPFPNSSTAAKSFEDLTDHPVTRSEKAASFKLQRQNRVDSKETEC
Induced myeloid leukemia cell differentiation protein Mcl-1, sequence (Q07820 whole entry, the tested form may be a part): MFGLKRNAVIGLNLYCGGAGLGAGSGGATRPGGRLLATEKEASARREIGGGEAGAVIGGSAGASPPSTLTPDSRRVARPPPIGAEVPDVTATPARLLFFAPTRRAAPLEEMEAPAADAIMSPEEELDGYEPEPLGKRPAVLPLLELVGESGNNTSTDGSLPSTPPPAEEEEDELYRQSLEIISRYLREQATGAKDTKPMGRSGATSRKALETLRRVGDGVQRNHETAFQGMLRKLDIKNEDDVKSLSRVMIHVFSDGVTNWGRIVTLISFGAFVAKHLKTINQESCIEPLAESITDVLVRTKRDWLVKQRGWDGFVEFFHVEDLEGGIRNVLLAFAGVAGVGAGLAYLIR
Galanin receptor type 3, sequence (O60755 whole entry): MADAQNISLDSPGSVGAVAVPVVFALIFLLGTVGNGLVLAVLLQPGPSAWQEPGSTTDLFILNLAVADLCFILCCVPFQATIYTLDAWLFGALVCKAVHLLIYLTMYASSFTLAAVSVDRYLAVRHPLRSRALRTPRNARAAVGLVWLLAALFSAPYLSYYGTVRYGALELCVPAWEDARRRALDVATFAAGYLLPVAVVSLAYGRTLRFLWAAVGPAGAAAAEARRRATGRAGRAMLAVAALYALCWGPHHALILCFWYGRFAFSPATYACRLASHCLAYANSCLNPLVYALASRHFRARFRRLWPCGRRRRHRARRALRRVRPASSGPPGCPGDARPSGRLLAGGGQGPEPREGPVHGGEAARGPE
ATP-binding cassette sub-family B member 6, sequence (Q9NP58 whole entry): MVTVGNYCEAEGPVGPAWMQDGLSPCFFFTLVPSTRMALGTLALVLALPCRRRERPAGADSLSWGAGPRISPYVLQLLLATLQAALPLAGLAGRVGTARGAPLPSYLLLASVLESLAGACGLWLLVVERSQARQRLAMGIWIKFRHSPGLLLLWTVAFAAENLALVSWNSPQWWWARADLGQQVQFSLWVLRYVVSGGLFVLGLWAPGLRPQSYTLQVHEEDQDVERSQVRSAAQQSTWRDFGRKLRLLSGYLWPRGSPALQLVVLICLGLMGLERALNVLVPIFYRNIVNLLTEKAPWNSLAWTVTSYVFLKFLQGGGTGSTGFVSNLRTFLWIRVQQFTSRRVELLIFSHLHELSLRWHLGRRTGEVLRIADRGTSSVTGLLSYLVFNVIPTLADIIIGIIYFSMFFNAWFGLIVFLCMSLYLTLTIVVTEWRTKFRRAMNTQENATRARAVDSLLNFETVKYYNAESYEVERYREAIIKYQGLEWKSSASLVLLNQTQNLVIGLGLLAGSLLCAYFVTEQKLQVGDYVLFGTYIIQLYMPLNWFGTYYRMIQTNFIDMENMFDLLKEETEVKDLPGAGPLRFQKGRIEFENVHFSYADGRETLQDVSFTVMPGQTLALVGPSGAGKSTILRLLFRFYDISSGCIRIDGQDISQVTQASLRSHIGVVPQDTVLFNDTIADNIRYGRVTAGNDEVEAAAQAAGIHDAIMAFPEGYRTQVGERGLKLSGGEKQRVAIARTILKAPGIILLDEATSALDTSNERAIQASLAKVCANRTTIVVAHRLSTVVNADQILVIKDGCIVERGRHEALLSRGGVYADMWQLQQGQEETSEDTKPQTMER
Endoplasmic reticulum aminopeptidase 1, sequence (Q9NZ08 whole entry): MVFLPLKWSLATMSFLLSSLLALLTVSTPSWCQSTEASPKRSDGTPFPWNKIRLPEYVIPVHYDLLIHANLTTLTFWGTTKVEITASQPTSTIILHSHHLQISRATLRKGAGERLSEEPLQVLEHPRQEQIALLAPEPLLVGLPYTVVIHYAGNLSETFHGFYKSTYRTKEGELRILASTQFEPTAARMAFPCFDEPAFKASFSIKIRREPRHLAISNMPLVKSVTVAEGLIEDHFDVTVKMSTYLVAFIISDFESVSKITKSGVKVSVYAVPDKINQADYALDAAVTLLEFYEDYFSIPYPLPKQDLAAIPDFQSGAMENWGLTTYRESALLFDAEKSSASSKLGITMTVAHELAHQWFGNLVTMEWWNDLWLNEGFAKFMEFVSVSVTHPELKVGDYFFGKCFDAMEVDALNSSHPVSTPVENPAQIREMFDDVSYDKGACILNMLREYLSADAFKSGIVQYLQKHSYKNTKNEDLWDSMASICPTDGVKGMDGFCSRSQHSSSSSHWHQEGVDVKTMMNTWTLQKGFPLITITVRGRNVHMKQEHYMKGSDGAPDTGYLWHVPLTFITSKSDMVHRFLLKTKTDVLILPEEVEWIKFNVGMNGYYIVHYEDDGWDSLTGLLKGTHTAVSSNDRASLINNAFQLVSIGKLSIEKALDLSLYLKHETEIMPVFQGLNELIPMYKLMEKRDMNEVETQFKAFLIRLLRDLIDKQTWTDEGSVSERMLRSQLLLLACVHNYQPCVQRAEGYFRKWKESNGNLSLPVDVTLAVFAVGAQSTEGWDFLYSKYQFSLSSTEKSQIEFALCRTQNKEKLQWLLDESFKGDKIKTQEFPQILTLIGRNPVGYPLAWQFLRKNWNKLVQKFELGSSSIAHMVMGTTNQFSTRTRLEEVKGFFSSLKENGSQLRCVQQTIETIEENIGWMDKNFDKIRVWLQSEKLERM
Beta-lactamase (Salmonella choleraesuis (strain SC-B67), UniProt Q5J463), sequence (Q5J463 whole entry): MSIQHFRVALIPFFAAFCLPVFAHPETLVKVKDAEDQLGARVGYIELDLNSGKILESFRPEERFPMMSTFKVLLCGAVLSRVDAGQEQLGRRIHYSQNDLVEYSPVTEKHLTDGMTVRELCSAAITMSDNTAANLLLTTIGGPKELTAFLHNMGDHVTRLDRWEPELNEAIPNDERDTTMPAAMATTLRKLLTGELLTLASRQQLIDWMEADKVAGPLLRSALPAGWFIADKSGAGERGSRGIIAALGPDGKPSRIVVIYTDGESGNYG
Albumin, sequence (P02769 whole entry): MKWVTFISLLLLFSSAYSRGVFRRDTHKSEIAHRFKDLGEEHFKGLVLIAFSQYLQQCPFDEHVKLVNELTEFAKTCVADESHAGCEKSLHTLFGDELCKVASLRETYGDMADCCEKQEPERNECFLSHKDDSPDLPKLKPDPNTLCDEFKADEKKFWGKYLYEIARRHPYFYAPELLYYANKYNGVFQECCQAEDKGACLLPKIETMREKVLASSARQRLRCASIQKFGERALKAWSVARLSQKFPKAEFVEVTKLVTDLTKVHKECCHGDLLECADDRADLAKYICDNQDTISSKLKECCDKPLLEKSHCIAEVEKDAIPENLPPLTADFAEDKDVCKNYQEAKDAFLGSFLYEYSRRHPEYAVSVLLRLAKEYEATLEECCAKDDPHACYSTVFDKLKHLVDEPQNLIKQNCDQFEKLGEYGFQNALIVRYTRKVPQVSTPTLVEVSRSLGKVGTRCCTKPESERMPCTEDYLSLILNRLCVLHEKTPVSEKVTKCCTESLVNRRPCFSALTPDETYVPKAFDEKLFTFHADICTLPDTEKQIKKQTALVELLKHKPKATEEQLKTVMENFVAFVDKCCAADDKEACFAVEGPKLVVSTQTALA

## CC(C)c1ccccc1N=C(S)NN(Cc1ccccc1)c1ccccc1
[1]
  IC50: < 0.4 µM (not active)
HeLa
  AC50: > 52 µM (inactive)

## CC(CC(=O)Nc1ccc(Cl)c(S(=O)(=O)N2CCOCC2)c1)c1ccccc1 (stereo unspecified)
Galanin receptor type 3
  IC50: 1.21 µM (active)
cells
  EC50: > 29.9 µM (inactive)

## O=c1ccc2cc(O[C@@H]3O[C@@H](CO)[C@H](O)[C@@H](O)[C@@H]3O)c(O)cc2o1
[2]
  AC50: 2.37 µM (active)

## CN(C)c1ccc(NC(=O)c2ccc(COc3cccc(Cl)c3)o2)cc1
[3]
  IC50: 23.4 µM (active)
[4]
  IC50: > 69.5 µM (inactive)
[5]
  IC50: 8.25 µM (active)

## CC(=O)Nc1ccc(NC(=O)c2nc(S(=O)(=O)Cc3cccc(C)c3)ncc2Cl)cc1
[6]
  AC50: 2.47 µM (active)
Bcl-2-related protein A1
  IC50: > 20 µM (inactive)
[7]
  IC50: 13 µM (active)
[8]
  IC50: > 20 µM (inactive)
CHO
  IC50: 3.54 µM (active)
[9]
  AC50: 7.54 µM (active)
Protein RecA
  EC50: 5.24 µM (active)
Beta Lactamase [10]
  IC50: 9.43 µM (active)
[11]
  AC50: 0.528 µM (active)
[12]
  AC50: 66.6 µM (active)
[13]
  AC50: 6.53 µM (active)
[14]
  EC50: 17.8 µM (active)

## CCc1ccc(NC(=O)NNC(=O)c2ccc3ccccc3c2O)cc1
Albumin
  IC50: > 94.1 µM (inactive)

## O=C(C1=C(O)C(=O)N(Cc2cccnc2)C1c1ccccn1)c1ccc(F)cc1 (stereo unspecified)
Beta-lactamase [15]
  IC50: > 59.6 µM (inactive)
Beta-lactamase [16]
  IC50: > 59.6 µM (inactive)
Beta Lactamase [17]
  IC50: 2.42 µM (active)
Beta-lactamase [18]
  IC50: > 59.6 µM (inactive)
Beta Lactamase [19]
  IC50: 0.941 µM (active)

— ChEMBL document CHEMBL1201862, “PubChem BioAssay data set” (2004)
